Test results as given in PubChem BioAssay AID256 (DTP/NCI, 2004).
Where “and” joins values, the source holds several entries; their conditions need not be identical. Identical values can stand only once. Toxic doses and inconclusive results are not listed.

Tested on: CD2F1 mice, L1210 leukemia ip, survival T/C
Test: NCI In Vivo Anticancer Drug Screen. Data for tumor model L1210 Leukemia (intraperitoneal) in CD2F1 (CDF1) mice
Conditions: higher = longer survival
In short: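 Mice carrying a transplanted tumor received test compound or vehicle alone. The value is the measurement in the treated group divided by that in the vehicle-treated control group.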

[1] = endpoint: mean survival time, dose: 100.0 mg/kg/injection, schedule: Q01DX001 (ip), vehicle: saline
[2] = endpoint: mean survival time, dose: 200.0 mg/kg/injection, schedule: Q01DX001 (ip), vehicle: saline
[3] = endpoint: mean survival time, dose: 400.0 mg/kg/injection, schedule: Q01DX001 (ip), vehicle: saline
[4] = endpoint: mean survival time, dose: 25.0 mg/kg/injection, schedule: Q01DX009 (ip), vehicle: saline with Tween-80
[5] = endpoint: mean survival time, dose: 50.0 mg/kg/injection, schedule: Q01DX009 (ip), vehicle: saline with Tween-80
[6] = endpoint: mean survival time, dose: 100.0 mg/kg/injection, schedule: Q01DX009 (ip), vehicle: saline with Tween-80
[7] = endpoint: mean survival time, dose: 100.0 mg/kg/injection, schedule: Q04DX003 (ip), vehicle: saline with Tween-80
[8] = endpoint: mean survival time, dose: 200.0 mg/kg/injection, schedule: Q01DX009 (ip), vehicle: saline with Tween-80
[9] = endpoint: mean survival time, dose: 200.0 mg/kg/injection, schedule: Q04DX003 (ip), vehicle: saline with Tween-80
[10] = endpoint: mean survival time, dose: 400.0 mg/kg/injection, schedule: Q04DX003 (ip), vehicle: saline with Tween-80
[11] = endpoint: median survival time, dose: 50.0 mg/kg/injection, schedule: Q04DX003 (ip), vehicle: saline with Tween-80
[12] = endpoint: median survival time, dose: 100.0 mg/kg/injection, schedule: Q04DX003 (ip), vehicle: saline with Tween-80
[13] = endpoint: median survival time, dose: 200.0 mg/kg/injection, schedule: Q04DX003 (ip), vehicle: saline with Tween-80
[14] = endpoint: median survival time, dose: 400.0 mg/kg/injection, schedule: Q04DX003 (ip), vehicle: saline with Tween-80
[15] = endpoint: mean survival time, dose: 400.0 mg/kg/injection, schedule: Q01DX009 (ip), vehicle: saline with Tween-80
[16] = endpoint: mean survival time, dose: 3.12 mg/kg/injection, schedule: Q01DX009 (ip), vehicle: saline
[17] = endpoint: mean survival time, dose: 6.25 mg/kg/injection, schedule: Q01DX009 (ip), vehicle: saline
[18] = endpoint: mean survival time, dose: 100.0 mg/kg/injection, schedule: Q04DX002 (ip), vehicle: saline with Tween-80
[19] = endpoint: mean survival time, dose: 200.0 mg/kg/injection, schedule: Q04DX002 (ip), vehicle: saline with Tween-80
[20] = endpoint: mean survival time, dose: 400.0 mg/kg/injection, schedule: Q04DX002 (ip), vehicle: saline with Tween-80

Cn1cnc([N+](=O)[O-])c1[Se]c1nc(N)nc2nc[nH]c12
T/C (endpoint: mean survival time, dose: 3.12 mg/kg/injection, schedule: Q01DX009 (ip), vehicle: water): 111 % of control
T/C (endpoint: mean survival time, dose: 6.25 mg/kg/injection, schedule: Q01DX009 (ip), vehicle: water): 124 % of control
T/C (endpoint: mean survival time, dose: 7.3 mg/kg/injection, schedule: Q01DX005 (ip), vehicle: water): 121 % of control
T/C (endpoint: mean survival time, dose: 25.0 mg/kg/injection, schedule: Q01DX005 (ip), vehicle: water): 153 % of control
T/C (endpoint: mean survival time, dose: 25.0 mg/kg/injection, schedule: Q01DX009 (ip), vehicle: water): 160 % of control
T/C (endpoint: mean survival time, dose: 37.5 mg/kg/injection, schedule: Q01DX005 (ip), vehicle: water): 178 % of control
T/C (endpoint: mean survival time, dose: 50.0 mg/kg/injection, schedule: Q01DX009 (ip), vehicle: water): 151 % of control

O=S(=O)(SC1=NCCN1)c1ccccc1
T/C [1]: 101 % of control
T/C [2]: 97 % of control
T/C [3]: 101 % of control

Clc1ccc2nnnn2n1
T/C (endpoint: mean survival time, dose: 12.5 mg/kg/injection, schedule: Q01DX009 (ip), vehicle: saline with Tween-80): 105 % of control
T/C [4]: 113 % of control and 114 % of control
T/C (endpoint: mean survival time, dose: 25.0 mg/kg/injection, schedule: Q04DX003 (ip), vehicle: saline with Tween-80): 96 % of control
T/C (endpoint: mean survival time, dose: 31.75 mg/kg/injection, schedule: Q04DX003 (ip), vehicle: saline with Tween-80): 106 % of control
T/C [5]: 100 % of control and 110 % of control
T/C (endpoint: mean survival time, dose: 50.0 mg/kg/injection, schedule: Q04DX003 (ip), vehicle: saline with Tween-80): 100 % of control
T/C (endpoint: mean survival time, dose: 62.5 mg/kg/injection, schedule: Q04DX003 (ip), vehicle: saline with Tween-80): 103 % of control
T/C [6]: 114 % of control and 122 % of control
T/C [7]: 107 % of control
T/C (endpoint: mean survival time, dose: 125.0 mg/kg/injection, schedule: Q04DX003 (ip), vehicle: saline with Tween-80): 103 % of control
T/C [8]: 100 % of control
T/C [9]: 105 % of control
T/C (endpoint: mean survival time, dose: 250.0 mg/kg/injection, schedule: Q04DX003 (ip), vehicle: saline with Tween-80): 105 % of control
T/C [10]: 108 % of control
T/C (endpoint: median survival time, dose: 25.0 mg/kg/injection, schedule: Q01DX009 (ip), vehicle: saline with Tween-80): 102 % of control and 103 % of control
T/C (endpoint: median survival time, dose: 25.0 mg/kg/injection, schedule: Q04DX003 (ip), vehicle: saline with Tween-80): 114 % of control
T/C (endpoint: median survival time, dose: 50.0 mg/kg/injection, schedule: Q01DX009 (ip), vehicle: saline with Tween-80): 113 % of control and 108 % of control
T/C [11]: 112 % of control
T/C (endpoint: median survival time, dose: 100.0 mg/kg/injection, schedule: Q01DX009 (ip), vehicle: saline with Tween-80): 118 % of control
T/C [12]: 113 % of control
T/C (endpoint: median survival time, dose: 200.0 mg/kg/injection, schedule: Q01DX009 (ip), vehicle: saline with Tween-80): 117 % of control and 108 % of control
T/C [13]: 110 % of control
T/C [14]: 118 % of control

c1ccc(C2=NNC(c3ccccn3)=NN2)nc1
T/C [6]: 95 % of control
T/C [7]: 97 % of control
T/C [8]: 101 % of control
T/C [9]: 92 % of control
T/C [15]: 97 % of control
T/C [10]: 101 % of control

CN(C)CCCn1c2ccccc2c2cnccc21
T/C (endpoint: mean survival time, dose: 25.0 mg/kg/injection, schedule: Q04DX003 (ip), vehicle: saline): 98 % of control
T/C (endpoint: mean survival time, dose: 50.0 mg/kg/injection, schedule: Q04DX003 (ip), vehicle: saline): 110 % of control
T/C (endpoint: mean survival time, dose: 100.0 mg/kg/injection, schedule: Q04DX003 (ip), vehicle: saline): 113 % of control

CC1=C(C)C(=O)O[C@@H]([C@](C)(O)[C@]2(O)CC[C@@]3(O)[C@@H]4C[C@H]5O[C@]56CC=CC(=O)[C@]6(C)[C@H]4CC[C@]23C)C1
T/C (endpoint: mean survival time, dose: 3.12 mg/kg/injection, schedule: Q01DX009 (ip), vehicle: saline with Tween-80): 104 % of control
T/C [16]: 112 % of control
T/C (endpoint: mean survival time, dose: 6.25 mg/kg/injection, schedule: Q01DX009 (ip), vehicle: saline with Tween-80): 105 % of control
T/C [17]: 123 % of control
T/C (endpoint: mean survival time, dose: 12.5 mg/kg/injection, schedule: Q01DX009 (ip), vehicle: saline): 112 % of control
T/C [4]: 107 % of control
T/C (endpoint: mean survival time, dose: 25.0 mg/kg/injection, schedule: Q01DX009 (ip), vehicle: saline): 110 % of control
T/C [5]: 115 % of control
T/C (endpoint: mean survival time, dose: 50.0 mg/kg/injection, schedule: Q01DX009 (ip), vehicle: saline): 98 % of control
T/C [6]: 107 % of control
T/C (endpoint: mean survival time, dose: 100.0 mg/kg/injection, schedule: Q01DX009 (ip), vehicle: saline): 93 % of control

Nc1nc(N)c(N)c(N)n1
T/C (endpoint: mean survival time, dose: 75.0 mg/kg/injection, schedule: Q01DX001 (ip), vehicle: saline with Tween-80): 94 % of control
T/C [6]: 90 % of control
T/C [7]: 98 % of control
T/C (endpoint: mean survival time, dose: 150.0 mg/kg/injection, schedule: Q01DX001 (ip), vehicle: saline with Tween-80): 101 % of control
T/C [8]: 104 % of control
T/C (endpoint: mean survival time, dose: 300.0 mg/kg/injection, schedule: Q01DX001 (ip), vehicle: saline with Tween-80): 103 % of control
T/C [15]: 93 % of control

CC1(C)/C(=C/c2ccccc2)C(=O)c2ccccc21
T/C [6]: 100 % of control
T/C [7]: 102 % of control
T/C [8]: 100 % of control
T/C [9]: 92 % of control
T/C [15]: 94 % of control
T/C [10]: 102 % of control

ClCC[Se](Cl)(Cl)c1ccccc1
T/C (endpoint: mean survival time, dose: 0.78 mg/kg/injection, schedule: Q01DX009 (ip), vehicle: saline): 96 % of control and 110 % of control
T/C (endpoint: mean survival time, dose: 1.56 mg/kg/injection, schedule: Q01DX009 (ip), vehicle: saline): 108 % of control
T/C [16]: 108 % of control and 112 % of control
T/C [17]: 115 % of control and 122 % of control

O=C(O)Cc1ccc(O)c(O)c1.[Pt].c1ccc([PH+](c2ccccc2)c2ccccc2)cc1.c1ccc([PH+](c2ccccc2)c2ccccc2)cc1
T/C (endpoint: median survival time, dose: 10.0 mg/kg/injection, schedule: Q04DX003 (ip), vehicle: saline with Tween-80): 103 % of control
T/C (endpoint: median survival time, dose: 20.0 mg/kg/injection, schedule: Q04DX003 (ip), vehicle: saline with Tween-80): 95 % of control
T/C (endpoint: median survival time, dose: 40.0 mg/kg/injection, schedule: Q04DX003 (ip), vehicle: saline with Tween-80): 101 % of control
T/C [11]: 94 % of control
T/C (endpoint: median survival time, dose: 80.0 mg/kg/injection, schedule: Q04DX003 (ip), vehicle: saline with Tween-80): 94 % of control
T/C [12]: 94 % of control
T/C [13]: 97 % of control
T/C [14]: 89 % of control

C(=N\C(/N=C/c1ccccc1)c1ccccc1)/c1ccccc1
T/C [1]: 100 % of control
T/C [2]: 103 % of control
T/C [3]: 106 % of control

Cc1cc(O)c2c(c1O)C(=O)c1c(O)ccc(O)c1C2=O
T/C [1]: 95 % of control
T/C [2]: 95 % of control
T/C [3]: 97 % of control

CCC[CH2][Sn]1([CH2]CCC)[O]CC2OC(n3cc(C)c(=O)[nH]c3=O)CC2[O]1 (stereo not given)
T/C (endpoint: mean survival time, dose: 0.78 mg/kg/injection, schedule: Q01DX005 (ip), vehicle: other): 97 % of control
T/C (endpoint: mean survival time, dose: 1.56 mg/kg/injection, schedule: Q01DX005 (ip), vehicle: other): 101 % of control
T/C (endpoint: mean survival time, dose: 3.13 mg/kg/injection, schedule: Q01DX005 (ip), vehicle: other): 106 % of control

CC1C(=O)OC2C1CCC1(C)C(O)OC(=O)C3(O)OC231 (stereo not given)
T/C [18]: 104 % of control
T/C [19]: 96 % of control
T/C [20]: 96 % of control

Cc1ccc(C(=O)/C=C/c2ccccc2)cc1
T/C (endpoint: mean survival time, dose: 25.0 mg/kg/injection, schedule: Q01DX009 (ip), vehicle: Klucel (hydroxypropylcellulose) (HPC)): 86 % of control
T/C (endpoint: mean survival time, dose: 50.0 mg/kg/injection, schedule: Q01DX009 (ip), vehicle: Klucel (hydroxypropylcellulose) (HPC)): 88 % of control
T/C (endpoint: mean survival time, dose: 100.0 mg/kg/injection, schedule: Q01DX001 (ip), vehicle: saline with Tween-80): 108 % of control
T/C (endpoint: mean survival time, dose: 100.0 mg/kg/injection, schedule: Q01DX009 (ip), vehicle: Klucel (hydroxypropylcellulose) (HPC)): 86 % of control
T/C (endpoint: mean survival time, dose: 200.0 mg/kg/injection, schedule: Q01DX001 (ip), vehicle: saline with Tween-80): 100 % of control
T/C (endpoint: mean survival time, dose: 200.0 mg/kg/injection, schedule: Q01DX009 (ip), vehicle: Klucel (hydroxypropylcellulose) (HPC)): 86 % of control
T/C (endpoint: mean survival time, dose: 400.0 mg/kg/injection, schedule: Q01DX001 (ip), vehicle: saline with Tween-80): 100 % of control

CNC(=S)N(C)c1nc(C)cs1
T/C [18]: 91 % of control
T/C [19]: 95 % of control
T/C [20]: 103 % of control
